#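 Following 48 hours of exposure in 96-well plates, responses at five concentrations were used to interpolate endpoints linearly. At the GI50, growth is halved.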 Active and inactive are the calls of the source. Cut-off read from the data, not from the text of the source: active = GI50 up to about 1.1 µM and inactive = higher.
# How the values were obtained:
# Test in all cases: NCI-60 cell line screen, 48 h
# SK-MEL-2 = test system: SK-MEL-2
# OVCAR-4 = test system: OVCAR-4
# SF-268 = test system: SF-268
# NCI-H226 = test system: NCI-H226
# HCT-116 = test system: HCT-116
# PC-3 = test system: PC-3
# MDA-MB-435 = test system: MDA-MB-435
# IGROV-1 = test system: IGROV-1
# LOX IMVI = test system: LOX IMVI
# HOP-62 = test system: HOP-62
# ACHN = test system: ACHN
# OVCAR-3 = test system: OVCAR-3
# MOLT-4 = test system: MOLT-4
# DU-145 = test system: DU-145
# A549 = test system: A549
# OVCAR-5 = test system: OVCAR-5
# SF-539 = test system: SF-539
# HCT-15 = test system: HCT-15
# HOP-92 = test system: HOP-92
# SR = test system: SR
Compound,GI50 (SK-MEL-2),GI50 (OVCAR-4),GI50 (SF-268),GI50 (NCI-H226),GI50 (HCT-116),GI50 (PC-3),GI50 (MDA-MB-435),GI50 (IGROV-1),GI50 (LOX IMVI),GI50 (HOP-62),GI50 (ACHN),GI50 (OVCAR-3),GI50 (MOLT-4),GI50 (DU-145),GI50 (A549),GI50 (OVCAR-5),GI50 (SF-539),GI50 (HCT-15) [µM],GI50 (HOP-92),GI50 (SR)
Nc1ccc2[nH]cc(CCC(=O)O)c2c1,> 100 µM (inactive),> 100 µM (inactive),> 100 µM (inactive),> 100 µM (inactive),> 100 µM (inactive),> 100 µM (inactive),> 100 µM (inactive),> 100 µM (inactive),> 100 µM (inactive),> 100 µM (inactive),> 100 µM (inactive),> 100 µM (inactive),> 100 µM (inactive),> 100 µM (inactive),> 100 µM (inactive),> 100 µM (inactive),> 100 µM (inactive),> 100,–,–
C=CCCCC(C#N)(c1ccccc1)N1CCCC1 (configuration not stated),> 100 µM (inactive),> 100 µM (inactive),> 100 µM (inactive),> 100 µM (inactive),> 100 µM (inactive),–,–,> 100 µM (inactive),> 100 µM (inactive),> 100 µM (inactive),> 100 µM (inactive),> 100 µM (inactive),> 100 µM (inactive),–,> 100 µM (inactive),> 100 µM (inactive),> 100 µM (inactive),> 100,> 100 µM (inactive),> 100 µM (inactive)
Cn1c(=O)c2c3ccccc3c(C(=O)c3ccccc3)n2c2ccccc21,15.5 µM (inactive),22.6 µM (inactive),20 µM (inactive),> 56.1 µM (inactive),4.12 µM (inactive),–,–,> 100 µM (inactive),9.64 µM (inactive),> 42.8 µM (inactive),24 µM (inactive),2.94 µM (inactive),3.94 µM (inactive),–,56.8 µM (inactive),17.3 µM (inactive),16.3 µM (inactive),3.4,3.84 µM (inactive),2.45 µM (inactive)
Cc1ccc(NC(=O)C2C3CCC(O3)C2C(=O)O)cc1 (configuration not stated),64.9 µM (inactive),> 100 µM (inactive),> 53.2 µM (inactive),56.5 µM (inactive),> 39 µM (inactive),–,–,> 100 µM (inactive),> 38.7 µM (inactive),> 100 µM (inactive),> 93.5 µM (inactive),> 52.2 µM (inactive),> 87.9 µM (inactive),–,> 76.2 µM (inactive),> 100 µM (inactive),> 57.7 µM (inactive),> 44.9,36.1 µM (inactive),15.7 µM (inactive)
Cc1cc2c(=O)cc(-c3ccncc3)oc2c(C(=O)O)c1C,> 100 µM (inactive),–,> 100 µM (inactive),> 100 µM (inactive),> 100 µM (inactive),–,–,> 100 µM (inactive),> 100 µM (inactive),> 100 µM (inactive),> 100 µM (inactive),> 100 µM (inactive),> 100 µM (inactive),–,> 100 µM (inactive),> 100 µM (inactive),> 100 µM (inactive),> 100,> 100 µM (inactive),> 100 µM (inactive)
CC(C)NC(=O)OCc1c(COC(=O)NC(C)C)n(C)c2c1ccc1cc(Cl)c(Cl)cc12,17.3 µM (inactive),20.1 µM (inactive),13.8 µM (inactive),3.78 µM (inactive),11.7 µM (inactive),14.9 µM (inactive),6.43 µM (inactive),10.5 µM (inactive),9.23 µM (inactive),14.7 µM (inactive),11.7 µM (inactive),16.6 µM (inactive),3.97 µM (inactive),–,19.5 µM (inactive),15.4 µM (inactive),13.5 µM (inactive),12.7,11.4 µM (inactive),2.64 µM (inactive)
Cc1cccc(C)c1NC(=O)CCCC(=O)C(C#N)c1ccc(Cl)cc1 (configuration not stated),> 100 µM (inactive),> 100 µM (inactive),> 100 µM (inactive),> 100 µM (inactive),> 100 µM (inactive),–,–,> 100 µM (inactive),> 100 µM (inactive),> 100 µM (inactive),> 100 µM (inactive),> 100 µM (inactive),> 100 µM (inactive),–,> 100 µM (inactive),> 100 µM (inactive),> 100 µM (inactive),> 100,> 100 µM (inactive),> 100 µM (inactive)
CCC(CO)COC(=O)/C=C/C(=O)OCC(CC)CO (configuration not stated),> 100 µM (inactive),> 100 µM (inactive),> 84.3 µM (inactive),> 100 µM (inactive),> 74.3 µM (inactive),–,–,> 100 µM (inactive),> 100 µM (inactive),> 100 µM (inactive),> 100 µM (inactive),> 62.5 µM (inactive),45.1 µM (inactive),–,> 100 µM (inactive),> 100 µM (inactive),> 100 µM (inactive),> 73.3,> 81.8 µM (inactive),30.9 µM (inactive)
Cc1cccc(C(C)C)c1NC(=O)CCl,75.5 µM (inactive),29.4 µM (inactive),38 µM (inactive),> 100 µM (inactive),50.2 µM (inactive),–,–,–,37.1 µM (inactive),41.9 µM (inactive),73.3 µM (inactive),19.1 µM (inactive),63.7 µM (inactive),–,> 100 µM (inactive),> 100 µM (inactive),> 100 µM (inactive),90.4,28.6 µM (inactive),47.8 µM (inactive)
N#Cc1ccc(Nc2cnc3ccc(N)cc3n2)cc1,> 100 µM (inactive),> 100 µM (inactive),> 100 µM (inactive),> 100 µM (inactive),> 100 µM (inactive),–,–,–,> 100 µM (inactive),> 100 µM (inactive),> 100 µM (inactive),> 100 µM (inactive),> 100 µM (inactive),–,> 100 µM (inactive),> 100 µM (inactive),> 100 µM (inactive),> 100,> 100 µM (inactive),91.4 µM (inactive)
NC(CCSCCF)C(=O)O (configuration not stated),> 100 µM (inactive),> 100 µM (inactive),> 100 µM (inactive),> 100 µM (inactive),> 100 µM (inactive),–,–,> 100 µM (inactive),> 100 µM (inactive),> 100 µM (inactive),> 100 µM (inactive),> 100 µM (inactive),> 100 µM (inactive),–,> 100 µM (inactive),> 100 µM (inactive),> 100 µM (inactive),> 100,> 100 µM (inactive),> 100 µM (inactive)
C=C1CC(CCCl)(c2ccccc2)OC1=O (configuration not stated),> 57.5 µM (inactive),> 100 µM (inactive),> 67 µM (inactive),> 100 µM (inactive),22.9 µM (inactive),–,–,> 100 µM (inactive),30.5 µM (inactive),> 100 µM (inactive),32.5 µM (inactive),26.1 µM (inactive),21.1 µM (inactive),–,> 71.9 µM (inactive),> 100 µM (inactive),27.9 µM (inactive),19.7,15.7 µM (inactive),20.1 µM (inactive)
COc1c(OC2OC(CO)C(O)C(O)C2O)cc2c(c1OC)-c1ccc(OC)c(=O)cc1C(NC(C)=O)CC2 (configuration not stated),57.8 µM (inactive),> 100 µM (inactive),> 100 µM (inactive),> 100 µM (inactive),> 100 µM (inactive),–,–,> 84.1 µM (inactive),> 100 µM (inactive),> 100 µM (inactive),> 100 µM (inactive),> 89.7 µM (inactive),> 100 µM (inactive),–,> 100 µM (inactive),> 100 µM (inactive),> 100 µM (inactive),> 100,44.6 µM (inactive),> 100 µM (inactive)
CC(=O)O[C@@H]1CC[C@@]2(C)C(=O)C34C[C@@]5(C)C([C@@H](C)CCCC(C)C)CCC5(C)[C@](O)(O3)C(=O)[C@H]4C2C1(C)C (some centres not stated),19.8 µM (inactive),13.2 µM (inactive),15.8 µM (inactive),15.7 µM (inactive),14 µM (inactive),–,–,15.4 µM (inactive),15.6 µM (inactive),17.7 µM (inactive),14 µM (inactive),12.3 µM (inactive),7.74 µM (inactive),–,13.3 µM (inactive),15.9 µM (inactive),19.3 µM (inactive),13.5,19.1 µM (inactive),16 µM (inactive)
CCCCCC(=O)N[C@H]1CCc2cc(O)c(O)c(O)c2-c2ccc(SC)c(=O)cc21,33 µM (inactive),18.1 µM (inactive),38.7 µM (inactive),28.2 µM (inactive),18.8 µM (inactive),–,–,38.4 µM (inactive),23.1 µM (inactive),47 µM (inactive),> 100 µM (inactive),35.2 µM (inactive),27.8 µM (inactive),–,36.7 µM (inactive),> 100 µM (inactive),20.9 µM (inactive),22.5,25.7 µM (inactive),22.8 µM (inactive)
C[C@@H]1CC[C@]2(C(=O)O)CC[C@]3(C)C(=CC[C@@H]4[C@@]5(C)CC[C@H](O)C(C)(C)[C@@H]5CC[C@]43C)[C@@H]2[C@]1(C)O [POMOLIC ACID],17.1 µM (inactive),16.8 µM (inactive),17.1 µM (inactive),–,12.2 µM (inactive),–,15.5 µM (inactive),16.5 µM (inactive),15.7 µM (inactive),–,16.5 µM (inactive),18.6 µM (inactive),4.86 µM (inactive),8.97 µM (inactive),17.2 µM (inactive),17.7 µM (inactive),3.25 µM (inactive),10.6,4.45 µM (inactive),13.9 µM (inactive)

# From ChEMBL document CHEMBL1201862, “PubChem BioAssay data set” (2004)
